“Also recorded” adds a separate entry of the source. Positions of bridges follow the written chain, without caps; N, C: chain ends. Residues, ends and D or L forms follow the SMILES beside them.
How the values were obtained:
in vitro = format: cell-based; settings: human
Method in brief: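 Cytotoxicity assessed by MTT assay and proliferation by ³H-thymidine incorporation, with peptides tested at concentrations up to 100 μM.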

[1] = tested on: bovine pulmonary artery endothelial cells; assay: Disruption of bovine endothelial cell adhesion; format: cell-based; settings: 500 μg/ml, 30 minutes
Protocol: For use within one such assay, bovine pulmonary artery endothelial cells may be harvested by sterile ablation and digestion in 0.1% collagenase (type II; Worthington Enzymes, Freehold, N.J.). Cells may be maintained in Dulbecco's minimum essential medium supplemented with 10% fetal calf serum and 1% antibiotic-antimycotic at 37° C. in 7% CO2 in air. Cultures may be passaged weekly in trypsin-EDTA and seeded onto tissue culture plastic at 20,000 cells/cm^2. Endothelial cultures may be used at 1 week in culture, which is approximately 3 days after culture confluency is established. The cells may be seeded onto coverslips and treated (e.g., for 30 minutes) with modulating agent or a control compound at, for example, 500 μg/ml and then fixed with 1% paraformaldehyde. As noted above, disruption of cell adhesion may be determined visually within 24 hours, by observing retraction of the cells from one another. This assay evaluates the effect of a modulating agent on N-cadherin mediated cell adhesion.
Bovine pulmonary artery endothelial cells were harvested by sterile ablation and digestion in 0.1% collagenase (type II; Worthington Enzymes, Freehold, N.J.). Cells were maintained in Dulbecco's […] essential medium (Clonetics, San Diego, Calif.) supplemented with 10% fetal calf serum (Atlantic Biologicals, Nor cross, Ga.) and 1% antibiotic-antimycotic at 37° C. in 7% CO2 in air. Cultures were passaged weekly in trypsin-EDTA (Gibco, Grand Island, N.Y.) and seeded onto tissue culture plastic at 20,000 cells/cm^2 for all experiments. Endothelial cultures were used at 1 week in culture, which is approximately 3 days after culture confluency was established. The cells used in all protocols were between 4th passage and 10th passage. The cells were seeded onto coverslips and treated 30 minutes with N-Ac-CHAVC-NH2 (SEQ ID NO:10) or N-Ac-CHGVC-NH2 (SEQ ID NO:20) at 500 μg/ml and then fixed with 1% paraformaldehyde.

chick N-cadherin = molecular target: T1, chick N-cadherin (Gallus gallus, UniProt P10288); assay: N-cadherin dependent neurite outgrowth of rat cerebellar neurons on N-cadherin expressing 3T3 cells (Example 14); format: cell-based; settings: for inhibitory activity on N-cadherin dependent neurite outgrowth, in words: Tables 8 and 9, 250 or 125 μg/mL
T1 construct: expressed in transfected cells; host or cells: 3T3 fibroblasts
T1 sequence (P10288 165-912): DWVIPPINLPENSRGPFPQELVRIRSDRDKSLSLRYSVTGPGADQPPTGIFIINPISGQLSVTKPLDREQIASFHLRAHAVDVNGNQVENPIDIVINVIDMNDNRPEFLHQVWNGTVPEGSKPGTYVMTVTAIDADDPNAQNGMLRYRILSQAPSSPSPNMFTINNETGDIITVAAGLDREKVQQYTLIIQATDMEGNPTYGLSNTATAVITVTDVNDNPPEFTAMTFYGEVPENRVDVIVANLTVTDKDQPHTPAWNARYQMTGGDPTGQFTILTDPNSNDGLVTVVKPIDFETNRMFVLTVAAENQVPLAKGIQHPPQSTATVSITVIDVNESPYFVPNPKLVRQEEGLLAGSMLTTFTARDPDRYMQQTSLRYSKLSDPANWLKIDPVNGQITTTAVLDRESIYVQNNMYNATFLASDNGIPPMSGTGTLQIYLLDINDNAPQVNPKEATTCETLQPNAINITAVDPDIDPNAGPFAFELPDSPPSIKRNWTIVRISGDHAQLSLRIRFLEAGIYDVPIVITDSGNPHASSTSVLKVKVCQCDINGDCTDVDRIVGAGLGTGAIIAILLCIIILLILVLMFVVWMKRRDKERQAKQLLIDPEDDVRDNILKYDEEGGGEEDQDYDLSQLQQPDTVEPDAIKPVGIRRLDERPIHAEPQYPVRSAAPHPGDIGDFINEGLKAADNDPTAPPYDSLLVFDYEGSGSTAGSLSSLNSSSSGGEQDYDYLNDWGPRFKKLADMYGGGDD

HUVEC = format: cell-based, human; settings: 3 h
WI-38 = format: cell-based, human; settings: 3 h
Protocol: N-Ac-CHAVC-NH2 (SEQ ID NO:10) and the control peptide N-Ac-CHGVC-NH2 (SEQ ID NO:20) were evaluated for possible cytotoxic effects on human microvascular endothelial (HMVEC; Clonetics), human umbilical vein endothelial (HUVEC; ATCC #CRL-1730), IAFp2 (human fibroblast cell line; Institute Armand-Frapier, Montreal, Quebec), WI-38 (human fibroblast cell line; ATCC #CCL-75), MDA-MB231 (human breast cancer cell line; ATCC #HTB-26), and PC-3 (human prostate cancer cell line; ATCC #CRL-1435) cells utilizing the MTT assay (Plumb et al., Cancer Res. 49:4435-4440, 1989). Neither of the peptides was cytotoxic at concentrations up to and including 100 μM. Similarly, neither of the peptides was capable of inhibiting the proliferation of the above cell lines at concentrations up to 100 μM, as judged by ^3H-thymidine incorporation assays.

| Structure (SMILES) | IC50 (in vitro) [µM] | inhibition at 250 µg/mL (chick N-cadherin; NIH3T3, 250 μg/mL, 16-18 hours) [%] | reduction in inhibitory activity on flanking HAV with E-cadherin amino acids (chick N-cadherin; Table 8, 250 μg/mL) | activity on N-cadherin dependent neurite outgrowth at lower concentration, in words (chick N-cadherin; concentrations of 125 µg/mL or below) | % Inhibition of N-cadherin dependent neurite outgrowth (chick N-cadherin; 250 μg/mL, 16-18 hours) | inhibition at 125 µg/mL (chick N-cadherin; NIH3T3, 125 μg/mL, 16-18 hours) [%] | EC50 (chick N-cadherin; from dose-response curve) [µM] | effect on endothelial cell monolayer / morphology [1] | inhibitory activity on N-cadherin dependent neurite outgrowth, in words (chick N-cadherin) | IC50 (HUVEC) [µM] | IC50 (WI-38) [µM] | effect on the N-cadherin response, in words (chick N-cadherin; concentrations up to 62 μg/ml) |
| --- | --- | --- | --- | --- | --- | --- | --- | --- | --- | --- | --- | --- |
| CC(=O)N[C@H]1CSSC[C@@H](C(N)=O)NC(=O)[C@H](CC(=O)O)NC(=O)[C@H](C(C)C)NC(=O)[C@H](C)NC(=O)[C@H](Cc2c[nH]cn2)NC(=O)[C@H](C)NC1=O [N-Ac-CAHAVDC-NH2, N-Ac-Cys-Ala-His-Ala-Val-Asp-Cys-NH2] (Ac-CAHAVDC-NH2; disulfide 1-7) | > 100 | 13.3 ± 8.3 | – | – | – | – | – | had a slight effect; also recorded: retracted from one another | completely eliminated inhibitory activity | – | – | – |
| CC[C@H](C)[C@@H]1NC(=O)[C@H](CC(=O)O)NC(=O)[C@H](C(C)C)NC(=O)[C@H](C)NC(=O)[C@H](Cc2c[nH]cn2)NC(=O)[C@H](C)NC(=O)[C@@H](NC(C)=O)CSSC[C@@H](C(N)=O)NC1=O (Ac-CAHAVDIC-NH2; disulfide 1-8) | > 100 | 89.4 | – | lost activity | – | – | – | had no effect on endothelial cell morphology; also recorded: neither of the cyclic peptides show activity | reduced, but did not eliminate, the activity; also recorded: potent inhibitors of neurite outgrowth | – | – | – |
| CC(=O)N[C@H]1CSSC[C@@H](C(N)=O)NC(=O)[C@H](C(C)C)NC(=O)[C@H](C)NC(=O)[C@H](Cc2c[nH]cn2)NC1=O [N-Ac-CHAVC-NH2, N-Ac-Cys-His-Ala-Val-Cys-NH2] | – | 68.2 | – | – | 68.2 ± 5.1 (4) % | 33.2 | 220 | disrupted the endothelial cell monolayer; also recorded: retracted from one another | – | > 100 | > 100 | no significant effect on the N-cadherin response |

More lines, main results first:

| IC50 (in vitro) [µM] | inhibition at 250 µg/mL (chick N-cadherin; NIH3T3, 250 μg/mL, 16-18 hours) [%] | reduction in inhibitory activity on flanking HAV with E-cadherin amino acids (chick N-cadherin; Table 8, 250 μg/mL) | activity on N-cadherin dependent neurite outgrowth at lower concentration, in words (chick N-cadherin; concentrations of 125 µg/mL or below) | % Inhibition of N-cadherin dependent neurite outgrowth (chick N-cadherin; 250 μg/mL, 16-18 hours) | inhibition at 125 µg/mL (chick N-cadherin; NIH3T3, 125 μg/mL, 16-18 hours) [%] | EC50 (chick N-cadherin; from dose-response curve) [µM] | Structure (SMILES) | effect on endothelial cell monolayer / morphology [1] | inhibitory activity on N-cadherin dependent neurite outgrowth, in words (chick N-cadherin) | IC50 (HUVEC) [µM] | IC50 (WI-38) [µM] | effect on the N-cadherin response, in words (chick N-cadherin; concentrations up to 62 μg/ml) |
| --- | --- | --- | --- | --- | --- | --- | --- | --- | --- | --- | --- | --- |
| > 100 | -2.5 ± 7.4 | complete | – | – | – | – | CC(=O)N[C@H]1CSSC[C@@H](C(N)=O)NC(=O)[C@H](CO)NC(=O)[C@H](C(C)C)NC(=O)[C@H](C)NC(=O)[C@H](Cc2c[nH]cn2)NC1=O [N-Ac-CHAVSC-NH2, N-Ac-Cys-His-Ala-Val-Ser-Cys-NH2] (Ac-CHAVSC-NH2; disulfide 1-6) | had no effect on endothelial cell morphology | – | – | – | – |
| – | 4.8 ± 5.3 | – | – | – | – | – | CC(=O)N[C@H]1CSSC[C@@H](C(N)=O)NC(=O)[C@H](C(C)C)NC(=O)CNC(=O)[C@H](Cc2c[nH]cn2)NC1=O [N-Ac-CHGVC-NH2, reference compound] | inactive | – | > 100 | > 100 | – |
